Source: patent US20220288154A1, “GNRH ANTAGONISTS FOR THE TREATMENT OF ESTROGEN-DEPENDENT DISORDERS” (ObsEva S.A., priority 2019, published 2022)
Marks after values point to notes of the source that are not given here.

Experiments:
human GnRH receptor = biological target: T1, human GnRH receptor (Homo sapiens, UniProt P30968); assay: Affinity for human GnRH receptor; assay type: binding
T1 sequence (P30968 1-328): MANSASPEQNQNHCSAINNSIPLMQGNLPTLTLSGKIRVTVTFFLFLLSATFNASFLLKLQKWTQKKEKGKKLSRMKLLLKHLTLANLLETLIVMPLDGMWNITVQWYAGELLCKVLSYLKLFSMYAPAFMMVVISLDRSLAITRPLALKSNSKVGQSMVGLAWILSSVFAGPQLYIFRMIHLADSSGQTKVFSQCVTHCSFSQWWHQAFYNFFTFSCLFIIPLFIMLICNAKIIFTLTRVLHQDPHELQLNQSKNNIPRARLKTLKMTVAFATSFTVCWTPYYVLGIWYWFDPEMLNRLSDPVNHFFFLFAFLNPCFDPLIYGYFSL

[1] = test system: human female patients diagnosed as having uterine fibroids; assay: PRIMROSE 1 Phase 3 placebo-controlled trial in uterine fibroids; assay type: in vivo
Procedure: (§1) The PRIMROSE 1 study, conducted in the United States, enrolled 526 women. The PRIMROSE 2 study, conducted in the United States and Europe, enrolled 535 women. Patients were randomized to one of several cohorts: […] […] Pain levels were measured using a Verbal Rating Score (VRS), as described herein. Patients were also assessed to determine the proportion that reported an improvement in quality of life using the Uterine Fibroids Symptoms and Health-Related Quality of Life questionnaire.

[2] = test system: human female patients diagnosed as having uterine fibroids; assay: PRIMROSE 2 Phase 3 placebo-controlled trial in uterine fibroids; assay type: in vivo; conditions: for patients achieving menstrual blood loss ≤80 mL and ≥50% reduction from baseline: 52 weeks
Procedure: as §1

[3] = PRIMROSE 1 and PRIMROSE 2: lumbar spine bone mineral density; assay type: in vivo, human; conditions: 100 mg/day or 200 mg/day + ABT; 24 and 52 weeks
Procedure: To evaluate the safety of compound (VI), patients' bone mineral density levels were measured at baseline and at various timepoints during the studies.

[4] = test system: human female patients diagnosed as having endometriosis; assay: Phase 2b placebo-controlled trial in endometriosis: endometriosis-associated pain (daily electronic diary); assay type: in vivo; conditions: for Dyspareunia Mean (SD) Change from baseline (CFB): 0-3 VRS score; for Dyschezia Mean (SD) CFB: 0-10 NRS score; for Overall Pelvic Pain Responder Rate (VRS score reduction of >30% from baseline): after 52 weeks
Procedure: This example describes the results of a Phase 2b, double-blind, randomized, placebo-controlled, multicenter, human clinical trial undertaken to evaluate the efficacy of a GnRH antagonist represented by formula (VI) in a series of patients suffering from an estrogen-dependent disease. In this trial, a series of human female patients diagnosed as having endometriosis were administered the choline salt of 3-[2-fluoro-5-(2,3-difluoro-6-methoxybenzyloxy)4-methoxyphenyl]-2,4-dioxo-1,2,3,4-tetrahydrothieno[3,4d]pyrimidine-5-carboxylic acid periodically over the course of a 52-week treatment period. After 52 weeks of treatment, the patients were monitored for severity of disease symptoms and bone mineral density.
Participants were women aged 18 to 45 years with surgically confirmed endometriosis and moderate to severe EAP. Women with a history of osteoporosis or other metabolic bone disease were excluded. Certain subjects completing an initial 24-week treatment period were invited to continue in a treatment extension phase, resulting in a total of up to 52 weeks of treatment. Subjects that completed 52 weeks of treatment constituted the treatment extension analysis set (TEAS) of patients.
Patients were randomized to either (i) 50 mg/day, 75, mg/day, 100 mg/day, or 200 mg/day of 3-[2-fluoro-5-(2,3-difluoro-6-methoxybenzyloxy)4-methoxyphenyl]-2,4-dioxo-1,2,3,4-tetrahydrothieno[3,4d]pyrimidine-5-carboxylic acid, administered as a choline salt, or (ii) matching placebo. Patients assigned to the placebo cohort were switched to 100 mg/day of 3-[2-fluoro-5-(2,3-difluoro-6-methoxybenzyloxy)4-methoxyphenyl]-2,4-dioxo-1,2,3,4-tetrahydrothieno[3,4d]pyrimidine-5-carboxylic acid at week 12.
Patients that received 75 mg/day of compound (VI) were divided into two groups: those that received a fixed dose (FD) of compound (VI) at 75 mg/day throughout the 52-week treatment period, and those that received a titrated dose (TD) of 75 mg/day of compound (VI) for the first 12 weeks of the treatment period, followed by a daily dose of either 50 mg, 75 mg, or 100 mg of the compound depending on each patient's serum E2 concentration after 4 weeks or 8 weeks of treatment. Dosages from week 12 onward for patients in the 75 mg/day TD cohort were determined according to the following schedule:
Patients that were treated with 200 mg/day of the compound at the 24-week timepoint in the treatment period were switched to 100 mg/day for the final […] of the study.
EAP was assessed using questionnaires in a daily electronic diary. Mean 28-day scores for pelvic pain were calculated at each month up to 12 months and compared to baseline. Efficacy was assessed as the proportion of patients who had at least 30% reduction in OPP at 12 weeks. DYS, NMPP, dyspareunia, and dyschezia were also assessed. […]

[5] = in vivo
Procedure: BMD of the femoral neck, total hip and lumbar spine was assessed by DXA at baseline and after 12 and 24 weeks of treatment. Reading of DXA scans and monitoring of scan quality, including cross-calibration between sites, was centralized.
All bone mineral density measurements shown below were obtained by assessing bone mineral density at each patient's spine.

[6] = 200 mg/day to week 24, then 100 mg/day, 52 weeks

COc1cc(F)c(-n2c(=O)[nH]c3csc(C(=O)O)c3c2=O)cc1OCc1c(OC)ccc(F)c1F [Compound (VI), 3-[2-fluoro-5-(2,3-difluoro-6-methoxybenzyloxy)4-methoxyphenyl]-2,4-dioxo-1,2,3,4-tetrahydrothieno[3,4d]pyrimidine-5-carboxylic acid]
affinity for human GnRH receptor (human GnRH receptor): 27.4 nM | p value: Improvement in quality of life, Change from baseline in QoL symptom severity score (LS mean) ([1]; 100 mg/day): p = 0.002 | patients achieving menstrual blood loss ≤80 mL and ≥50% reduction from baseline ([1]; 100 mg/day without ABT, 24 weeks): 56.4% | patients achieving menstrual blood loss ≤80 mL and 50% reduction from baseline ([1]; 200 mg/day + ABT (1.0 mg E2 + 0.5 mg NETA), 24 weeks): 75.5% | p value: Improvement in quality of life, Change from baseline in QoL symptom severity score (LS mean) ([1]; 200 mg/day + once-daily ABT): p < 0.001 | p value: Improvement in quality of life, Change from baseline in QoL symptom severity score (LS mean) ([2]; 100 mg/day): p = 0.004 | patients achieving menstrual blood loss ≤80 mL and ≥50% reduction from baseline ([2]; 100 mg/day without ABT): 53.2% | patients achieving menstrual blood loss ≤80 mL and ≥50% reduction from baseline ([2]; 200 mg/day + ABT): 91.6% | p value: Improvement in quality of life, Change from baseline in QoL symptom severity score (LS mean) ([2]; 200 mg/day + once-daily ABT): p < 0.001 | effect on lumbar spine bone mineral density [3]: does not induce a substantial decrease in bone mineral density

COc1cc(F)c(-n2c(=O)[nH]c3csc(C(=O)O)c3c2=O)cc1OCc1c(OC)ccc(F)c1F [GnRH antagonist, 3-[2-fluoro-5-(2,3-difluoro-6-methoxybenzyloxy)4-methoxyphenyl]-2,4-dioxo-1,2,3,4-tetrahydrothieno[3,4d]pyrimidine-5-carboxylic acid]
Dyspareunia Mean (SD) Change from baseline (CFB) ([4]; 50 mg/day, 12 weeks): −0.6 (0.7) | Dyspareunia Mean (SD) Change from baseline (CFB) ([4]; 50 mg/day, 24 weeks): −0.7 (0.8) | Dyspareunia Mean (SD) Change from baseline (CFB) ([4]; 50 mg/day, 52 weeks): −0.5 (1.1) | Dyspareunia Mean (SD) Change from baseline (CFB) ([4]; 75 mg/day, 12 weeks): −0.7 (0.8) | Dyspareunia Mean (SD) Change from baseline (CFB) ([4]; 75 mg/day, 24 weeks): −0.7 (0.8) | Dyspareunia Mean (SD) Change from baseline (CFB) ([4]; 75 mg/day, 52 weeks): −0.9 (0.8) | Dyspareunia Mean (SD) Change from baseline (CFB) ([4]; 100 mg/day, 12 weeks): −0.7 (0.9) | Dyspareunia Mean (SD) Change from baseline (CFB) ([4]; 100 mg/day, 24 weeks): −0.6 (0.8) | Dyspareunia Mean (SD) Change from baseline (CFB) ([4]; 100 mg/day, 52 weeks): −0.7 (1.1) | Dyspareunia Mean (SD) Change from baseline (CFB) [4, 6]: −0.9 (0.9) | Dyspareunia Mean (SD) Change from baseline (CFB) ([4]; 200 mg/day, 12 weeks): −0.8 (1.1)* | Dyspareunia Mean (SD) Change from baseline (CFB) ([4]; 200 mg/day, 24 weeks): −1.0 (1.0) | Dyschezia Mean (SD) CFB ([4]; 50 mg/day, 12 weeks): −1.4 (1.7) | Dyschezia Mean (SD) CFB ([4]; 50 mg/day, 24 weeks): −1.5 (2.1) | Dyschezia Mean (SD) CFB ([4]; 50 mg/day, 52 weeks): −2.3 (1.8) | Dyschezia Mean (SD) CFB ([4]; 75 mg/day, 12 weeks): −2.1 (2.5)* | Dyschezia Mean (SD) CFB ([4]; 75 mg/day, 24 weeks): −2.2 (2.5) | Dyschezia Mean (SD) CFB ([4]; 75 mg/day, 52 weeks): −2.1 (2.9) | Dyschezia Mean (SD) CFB ([4]; 100 mg/day, 12 weeks): −2.0 (1.8)* | Dyschezia Mean (SD) CFB ([4]; 100 mg/day, 24 weeks): −2.0 (2.3) | Dyschezia Mean (SD) CFB ([4]; 100 mg/day, 52 weeks): −2.9 (3.1) | Dyschezia Mean (SD) CFB [4, 6]: −2.6 (2.7) | Dyschezia Mean (SD) CFB ([4]; 200 mg/day, 12 weeks): −1.7 (2.3)* | Dyschezia Mean (SD) CFB ([4]; 200 mg/day, 24 weeks): −2.5 (2.6) | % responders DYS (dysmenorrhea) ([4]; 50 mg/day, 12 weeks): 43.3% | % responders NMPP (non-menstrual pelvic pain) ([4]; 50 mg/day, 12 weeks): 46.2% | % responders OPP (overall pelvic pain) ([4]; 50 mg/day, 12 weeks): 49.4% | % responders DYS (dysmenorrhea) ([4]; 50 mg/day, 24 weeks): 47.5% | % responders NMPP (non-menstrual pelvic pain) ([4]; 50 mg/day, 24 weeks): 50% | % responders OPP (overall pelvic pain) ([4]; 50 mg/day, 24 weeks): 52.5% | % responders DYS (dysmenorrhea) ([4]; 50 mg/day, 52 weeks): 50% | % responders NMPP (non-menstrual pelvic pain) ([4]; 50 mg/day, 52 weeks): 66.7% | % responders OPP (overall pelvic pain) ([4]; 50 mg/day, 52 weeks): 66.7% | Overall Pelvic Pain Responder Rate (VRS score reduction of >30% from baseline) ([4]; 75 mg once daily): 69.2% | % responders DYS (dysmenorrhea) ([4]; 75 mg/day, 12 weeks): 68.2* % | % responders NMPP (non-menstrual pelvic pain) ([4]; 75 mg/day, 12 weeks): 58.5* % | % responders OPP (overall pelvic pain) ([4]; 75 mg/day, 12 weeks): 61.5* % | % responders DYS (dysmenorrhea) ([4]; 75 mg/day, 24 weeks): 58.3% | % responders NMPP (non-menstrual pelvic pain) ([4]; 75 mg/day, 24 weeks): 72.9% | % responders OPP (overall pelvic pain) ([4]; 75 mg/day, 24 weeks): 70.8% | % responders DYS (dysmenorrhea) ([4]; 75 mg/day, 52 weeks): 69.2% | % responders NMPP (non-menstrual pelvic pain) ([4]; 75 mg/day, 52 weeks): 69.2% | % responders OPP (overall pelvic pain) ([4]; 75 mg/day, 52 weeks): 69.2% | % responders DYS (dysmenorrhea) ([4]; 100 mg/day, 12 weeks): 68.6* % | % responders NMPP (non-menstrual pelvic pain) ([4]; 100 mg/day, 12 weeks): 61.5* % | % responders OPP (overall pelvic pain) ([4]; 100 mg/day, 12 weeks): 56.4* % | % responders DYS (dysmenorrhea) ([4]; 100 mg/day, 24 weeks): 82.1% | % responders NMPP (non-menstrual pelvic pain) ([4]; 100 mg/day, 24 weeks): 64.1% | % responders OPP (overall pelvic pain) ([4]; 100 mg/day, 24 weeks): 66.7% | % responders DYS (dysmenorrhea) ([4]; 100 mg/day, 52 weeks): 69.2% | % responders NMPP (non-menstrual pelvic pain) ([4]; 100 mg/day, 52 weeks): 53.8% | % responders OPP (overall pelvic pain) ([4]; 100 mg/day, 52 weeks): 53.8% | Overall Pelvic Pain Responder Rate (VRS score reduction of >30% from baseline) ([4]; 200 mg once daily): 82.4% | % responders DYS (dysmenorrhea) [4, 6]: 64.7% | % responders NMPP (non-menstrual pelvic pain) [4, 6]: 76.5% | % responders OPP (overall pelvic pain) [4, 6]: 82.4% | % responders DYS (dysmenorrhea) ([4]; 200 mg/day, 12 weeks): 78.9* % | % responders NMPP (non-menstrual pelvic pain) ([4]; 200 mg/day, 12 weeks): 47.7% | % responders OPP (overall pelvic pain) ([4]; 200 mg/day, 12 weeks): 56.3* % | % responders DYS (dysmenorrhea) ([4]; 200 mg/day, 24 weeks): 84.1% | % responders NMPP (non-menstrual pelvic pain) ([4]; 200 mg/day, 24 weeks): 72.7% | % responders OPP (overall pelvic pain) ([4]; 200 mg/day, 24 weeks): 77.3% | average bone mineral density losses [5]: less than 5%
